# According to patent publication US9540391B2, “Isomannide derivatives as inhibitors of soluble epoxide hydrolase” (SANOFI, priority 2013, dated 2017):
# Where a name gives a salt, the structure may show the parent alone.
# Molecular target: T1, recombinant sEH (Homo sapiens, UniProt P34913)
# T1 construct: made in house; host or cells: Sf9 insect cells
# T1 sequence (P34913 1-555): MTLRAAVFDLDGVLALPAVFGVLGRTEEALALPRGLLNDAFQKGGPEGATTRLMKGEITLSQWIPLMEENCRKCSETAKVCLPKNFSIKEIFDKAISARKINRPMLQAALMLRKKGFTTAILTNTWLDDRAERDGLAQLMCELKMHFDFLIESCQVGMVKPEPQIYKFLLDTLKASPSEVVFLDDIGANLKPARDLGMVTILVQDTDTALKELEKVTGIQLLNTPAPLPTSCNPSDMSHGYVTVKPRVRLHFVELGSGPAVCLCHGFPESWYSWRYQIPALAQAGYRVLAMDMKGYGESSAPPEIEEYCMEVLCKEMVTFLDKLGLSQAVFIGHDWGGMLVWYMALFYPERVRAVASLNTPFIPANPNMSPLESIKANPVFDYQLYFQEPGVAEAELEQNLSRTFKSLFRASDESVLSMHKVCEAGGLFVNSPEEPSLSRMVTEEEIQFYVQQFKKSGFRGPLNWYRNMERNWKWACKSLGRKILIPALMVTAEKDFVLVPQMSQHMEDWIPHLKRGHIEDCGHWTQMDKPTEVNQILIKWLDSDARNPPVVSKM
# Assay: biochemical screening assay for inhibition of soluble epoxide hydrolase (fluorometric, Phome substrate)
# Outline: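 Human sEH from Sf9 cells (2 nM final) was pre-incubated 15 min at 30 °C with compound (0.0001–10 μM), then reacted 60 min at 30 °C with 5 μM Phome in 25 mM Hepes/0.01% albumin. Fluorescence of released 6-methoxy-2-naphthaldehyde was read before substrate and at end; IC50 from % inhibition.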
row,IC50 [nM],SMILES
1,9,"Cc1cc(C)cc(NC(=O)NC2COC3C(CCc4ccsc4)COC23)c1 [Example 362, 1-(3,5-Dimethyl-phenyl)-3-[(3S,3aR,6R)-6-((S)-2-thiophen-3-yl-ethyl)-hexahydro-furo[3,2-b]furan-3-yl]-urea]"
2,7,"O=C(NC1CCCCC1)N[C@H]1CO[C@H]2[C@@H]1OC[C@@H]2Oc1cccc(Oc2ccccn2)c1 [Example 127, 1-Cyclohexyl-3-{(3S,3aR,6S,6aS)-6-[3-(pyridin-2-yloxy)-phenoxy]-hexa-hydro-furo[3,2-b]furan-3-yl}-urea]"
3,90,"O=C(Nc1ccc2c(c1)CCC2)N[C@H]1CO[C@H]2[C@@H]1OC[C@@H]2/C=C\c1ccsc1 [Example 341, 1-Indan-5-yl-3-[(3S,3aR,6S,6aR)-6-((Z)-2-thiophen-3-yl-vinyl)-hexa-hydro-furo[3,2-b]furan-3-yl]-urea]"
4,997,"Cc1ncccc1O[C@H]1CO[C@H]2[C@@H]1OC[C@@H]2NC(=O)NCc1cn(C)cn1 [Example 198, 1-(1-Methyl-1H-imidazol-4-ylmethyl)-3-[(3S,3aR,6S,6aS)-6-(2-methyl-pyridin-3-yloxy)-hexahydro-furo[3,2-b]furan-3-yl]-urea]"
5,423,"O=C(Nc1ccccc1)N[C@H]1CO[C@H]2[C@@H]1OC[C@@H]2/C=C\c1ccsc1 [Example 337, 1-Phenyl-3-[(3S,3aR,6S,6aR)-6-((Z)-2-thiophen-3-yl-vinyl)-hexahydro-furo[3,2-b]furan-3-yl]-urea]"
6,172,"Cc1ncccc1O[C@H]1CO[C@H]2[C@@H]1OC[C@@H]2NC(=O)NC(C)c1c(C)nn(C)c1C (stereo partly drawn) [Example 234, 1-[(3S,3aR,6S,6aS)-6-(2-Methyl-pyridin-3-yloxy)-hexahydro-furo[3,2-b]furan-3-yl]-3-[1-(1,3,5-trimethyl-1H-pyrazol-4-yl)-ethyl]-urea]"
7,3,"O=C(NC1CCCCC1)N[C@H]1CO[C@H]2[C@@H]1OC[C@@H]2Oc1cncc(Cl)c1 [Example 33, 1-[(3S,3aR,6S,6aS)-6-(5-Chloro-pyridin-3-yloxy)-hexahydro-furo[3,2-b]furan-3-yl]-3-cyclohexyl-urea]"
8,8,"O=C(NC1CCCCC1)N[C@H]1CO[C@H]2[C@@H]1OC[C@@H]2Oc1ccc(Cl)nc1 [Example 51, 1-[(3S,3aR,6S,6aS)-6-(6-Chloro-pyridin-3-yloxy)-hexahydro-furo[3,2-b]furan-3-yl]-3-cyclohexyl-urea]"
9,12,"O=C(NC1CCCCC1)N[C@H]1CO[C@H]2[C@@H]1OC[C@@H]2Oc1ccc2cc(Br)ccc2c1 [Example 99, 1-[(3S,3aR,6S,6aS)-6-(6-Bromo-naphthalen-2-yloxy)-hexahydro-furo-[3,2-b]furan-3-yl]-3-cyclohexyl-urea]"
10,1160,"Cc1ncccc1O[C@H]1CO[C@H]2[C@@H]1OC[C@@H]2NC(=O)NC1COC(C)(C)OC1 [Example 80, 1-(2,2-dimethyl-[1,3]dioxan-5-yl)-3-[(3S,3aR,6S,6aS)-6-(2-methyl-pyridin-3-yloxy)-hexahydro-furo[3,2-b]furan-3-yl]-urea]"
11,235,"O=C(Nc1ccc(OC(F)(F)F)cc1)N[C@H]1CO[C@@H]2[C@@H](CCc3ccsc3)CO[C@@H]21 [Example 374, 1-[(3S,3aR,6S,6aR)-6-(2-Thiophen-3-yl-ethyl)-hexahydro-furo[3,2-b]furan-3-yl]-3-(4-trifluoromethoxy-phenyl)-urea]"
12,39,"C[C@@H](NC(=O)N[C@H]1CO[C@H]2[C@@H]1OC[C@@H]2Oc1ccc(F)cc1)c1ccccc1 [Example 162, 1-[(3S,3aR,6S,6aS)-6-(4-Fluoro-phenoxy)-hexahydro-furo[3,2-b]furan-3-yl]-3-((R)-1-phenyl-ethyl)-urea]"
13,20,"Cc1ncccc1O[C@H]1CO[C@H]2[C@@H]1OC[C@@H]2NC(=O)NC1CCCN(C(=O)C2CC2)C1 (stereo partly drawn) [Example 85, 1-(1-Cyclopropanecarbonyl-piperidin-3-yl)-3-[(3S,3aR,6S,6aS)-6-(2-methyl-pyridin-3-yloxy)-hexahydro-furo[3,2-b]furan-3-yl]-urea]"
14,1680,"Cc1nc(CNC(=O)N[C@H]2CO[C@H]3[C@@H]2OC[C@@H]3Oc2cccnc2C)cs1 [Example 227, 1-[(3S,3aR,6S,6aS)-6-(2-Methyl-pyridin-3-yloxy)-hexahydro-furo[3,2-b]furan-3-yl]-3-(2-methyl-thiazol-4-ylmethyl)-urea]"
15,1,"O=C(NC1CCCCC1)N[C@H]1CO[C@H]2[C@@H]1OC[C@@H]2Oc1ccc(-n2cncn2)cc1 [Example 112, 1-Cyclohexyl-3-[(3S,3aR,6S,6aS)-6-(4-[1,2,4]triazol-1-yl-phenoxy)-hexahydro-furo[3,2-b]furan-3-yl]-urea; trifluoroacetate]"
16,22,"O=C(NC1CCCCC1)N[C@H]1CO[C@@H]2[C@@H](CCc3ccccn3)CO[C@@H]21 [Example 350, 1-Cyclohexyl-3-[(3S,3aR,6S,6aR)-6-(2-pyridin-2-yl-ethyl)-hexahydro-furo[3,2-b]furan-3-yl]-urea; trifluoroacetate]"
17,55,"Cc1ncccc1OC1COC2C(NC(=O)NCc3ccc(F)cc3)COC12 [Example 180, 1-(4-Fluoro-benzyl)-3-[(3S,3aR,6S,-6aS)-6-(2-methyl-pyridin-3-yloxy)-hexahydro-furo[3,2-b]furan-3-yl]-urea]"
18,2160,"CC(C)(C)NC(=O)N[C@H]1CO[C@H]2[C@@H]1OC[C@@H]2Oc1ccc(F)cc1 [Example 149, 1-tert-Butyl-3-[(3S,3aR,6S,6aS)-6-(4-fluoro-phenoxy)-hexahydro-furo[3,2-b]furan-3-yl]-urea]"
19,62,"O=C(N[C@H]1CO[C@H]2[C@@H]1OC[C@@H]2Oc1ccc(F)cc1)N[C@H]1CCC[C@@H]1OCc1ccccc1 [Example 153, 1-((1S,2S)-2-Benzyloxy-cyclopentyl)-3-[(3S,3aR,6S,6aS)-6-(4-fluoro-phenoxy)-hexahydro-furo[3,2-b]furan-3-yl]-urea]"
20,1730,"Cc1ncccc1O[C@H]1CO[C@H]2[C@@H]1OC[C@@H]2NC(=O)NCc1cnn(C)c1 [Example 192, 1-(1-Methyl-1H-pyrazol-4-ylmethyl)-3-[(3S,3aR,6S,6aS)-6-(2-methyl-pyridin-3-yloxy)-hexahydro-furo[3,2-b]furan-3-yl]-urea]"
21,1080,"COCC(NC(=O)N[C@H]1CO[C@H]2[C@@H]1OC[C@@H]2Oc1cccnc1C)c1ccnn1C (stereo partly drawn) [Example 211, 1-[2-Methoxy-1-(2-methyl-2H-pyrazol-3-yl)-ethyl]-3-[(3S,3aR,6S,6aS)-6-(2-methyl-pyridin-3-yloxy)-hexahydro-furo[3,2-b]furan-3-yl]-urea]"
22,1,"O=C(NC1CCCCC1)N[C@H]1CO[C@H]2[C@@H]1OC[C@@H]2Sc1ccccn1 [Example 54, 1-Cyclohexyl-3-[(3S,3aR,6S,6aS)-6-(pyridin-2-ylsulfanyl)-hexahydro-furo[3,2-b]furan-3-yl]-urea]"
23,3,"Cc1ncccc1O[C@H]1CO[C@H]2[C@@H]1OC[C@@H]2NC(=O)NC1CCCC(C)C1C (stereo partly drawn) [Example 261, 1-(2,3-Dimethyl-cyclohexyl)-3-[(3S,3aR,6S,6aS)-6-(2-methyl-pyridin-3-yloxy)-hexahydro-furo[3,2-b]furan-3-yl]-urea]"
24,3,"CC(=O)Nc1ccc(O[C@H]2CO[C@H]3[C@@H]2OC[C@@H]3NC(=O)NC2CCCCC2)cc1 [Example 113, N-{4-[(3S,3aS,6S,6aR)-6-(3-Cyclohexyl-ureido)-hexahydro-furo[3,2-b]furan-3-yloxy]-phenyl}-acetamide]"
